Results as given in patent publication US7709514B2, “Therapeutic molecules and methods-1” (Cortical Pty Ltd, priority 2002, dated 2010).
Entries after “also recorded” stand apart in the source; their conditions may differ. Read-outs that look alike come from different tables or passages of the source.

How the values were obtained:
[1] = test system: lymph node and splenic T cells; test: ex vivo antigen-specific T cell activation after in vivo treatment; design: species or system mice
Text: In vivo administration of such a compound might be expected to exert effects on T cell responsiveness even after the T cells have been removed from exposure to the compound, that is, if T cells were studied ex vivo after in vivo treatment with the MIF antagonist compound. To measure ex vivo antigen-specific T cell activation, draining lymph nodes from arthritic limbs or spleens were removed from mice with murine antigen induced arthritis, induced as above with mBSA, at day 28 after first immunisation and a single cell suspension prepared in DMEM containing 5% FCS and 0.05% 2-mercaptoethanol. 1×10^5 cells/200 μl were cultured in triplicate in the presence or absence of mBSA (0.1, 1.0, 10 μg/ml) in 96-well plates for 48 hours (37° C., 5% CO2.) The T cell proliferation response was determined by measuring ^3H-thymidine incorporation during the final 18 hr. The cells were harvested and radioactivity incorporation into the DNA was measured with a Wallac 1409 liquid scintillation counter. The means of each triplicate culture were calculated. Each experiment comprised at least three individual animals and the results presented represent the mean±SEM of groups of animals in each experiment. The percentage inhibition of T cell proliferation was calculated using the result of the […] incorporation of cells from compound-treated animals subtracted from the ^3H-thymidine incorporation of cells from vehicle-treated animals.

[2] = test system: IL-1-induced COX-2 expression; test: IL-1-induced COX-2 expression in S112 human dermal fibroblasts (MIF-dependent bioassay); type: cell-based
Method: The activity of compounds was studied in a bioassay utilising MIF-dependent activation of human dermal fibroblasts. […] IL-1-induced COX-2 expression is therefore a MIF-dependent event. […] Prior to experimentation, cells were seeded at 10^5 cells/ml in RPMI/0.1% BSA for 18 hours. […] After 6 hours, cells were collected and intracellular COX-2 protein determined by permeabilisation flow cytometry. […] Cellular fluorescence was determined using a flow cytometer. At least 5000 events were counted for each reading, each of which was performed in duplicate, and the results expressed in mean fluorescence intensity (MFI) after subtraction of negative control-labelled cell fluorescence. The effect of each compound was determined by subtracting the IL-1+compound-treated cell MFI from the IL-1-treated cell (control) MFI and expressed as % inhibition. In each case the % inhibition of IL-1-induced COX-2 expression is expressed as the mean, or mean±SEM where results are available from multiple experiments.

[3] = test system: antigen-specific T cell activation; test: antigen-specific (mBSA) activation of splenic T lymphocytes, 3H-thymidine incorporation; type: cell-based, mice; details: Mus musculus, T-cell, read-out: EC50, inhibition of T cell activation
Method: C57BL6/J male mice, aged 7-10 weeks old, were immunised with 200 μg of methylated bovine serum albumin (mBSA) dissolved in 20 μL of saline, emulsified in 200 μL of Freund's complete adjuvant (FCA) by subcutaneous injection. Seven (7) days later mice received a booster immunisation with 100 μg mBSA in 10 μL saline plus 100 μL FCA by subcutaneous injection. After a further seven (7) days mice were killed and spleens collected aseptically into Hanks buffered saline solution (HBSS). A single cell suspension was prepared in Petri dishes by flushing DMEM using a 26G needle and 2 mL syringe. The resulting cell suspension was centrifuged for 5-7 minutes and supernatant discarded. Erythrocytes were lysed using a solution containing 0.579% NH4Cl, 0.000037% EDTA, and 0.1% NaHCO3 in a 37° C. water bath. Tubes were then filled with DMEM and centrifuged for 5-7 minutes. The cell-containing pellet was then resuspended in DMEM containing 5% fetal calf serum TICS) and 0.05% 2-mercapto-ethanol at a concentration of 1×10^6 cells/mL and plated at 1×10^5 cells/well in 96-well plastic tissue culture plates. Test substances (compound or vehicle) were added and incubated for 1 hour in a 37° C., 5% CO2 incubator. The specific stimulating antigen, mBSA, was then added at 10-50 μg/ml and plates incubated for 30 hours in a 37° C., 5% CO2 incubator. Tritiated ^3H-thymidine was then added at a concentration of 0.5 μCi/well for a further 18 hours. Cells were harvested on a Packard cell harvester, and the harvested material added to 750 μL/tube scintillation fluid. Scintillation counts were read on a Wallac beta-emission counter.
The concentration at which T cell activation was suppressed by 50% compared to vehicle-only-treated cells (EC50) was calculated using Prism® software. […] Further compounds were also tested for their ability to inhibit antigen-specific T cell activation as a marker of the inhibition of the cytokine or biological activity of MIF using this assay. Table 5 lists the EC50 for each compound in this assay, performed with concentrations of mBSA of either 50 or 10 μg/ml.

[4] = test system: murine peritoneal macrophage cytokine production; test: inhibition of peritoneal macrophage cytokine production (ELISA); type: cell-based, mice; details: Mus musculus
Method: C57BL6/J male mice were injected intraperitoneally with 2 ml of thioglycollate. Five (5) days later peritoneal macrophages were collected by lavaging the peritoneum of anaesthetized mice with 3 ml of cold Hanks buffered saline solution. Cells from several mice were pooled, washed and re-suspended in DMEM supplemented with 5% FCS. Cells were plated in 96 well plastic tissue culture plates at 1×10^5 cells/well. Cells were treated with compound or vehicle for 1 hour in a 5% CO2 incubator at 37° C. Cells were then treated with LPS (10-100 ng/ml) or recombinant human interferon-γ (10 units/ml) and incubated for 24 hours. After 24 hours, 50 μl of supernatant from each well was carefully removed and transferred to ELISA plates. The concentration of interleukin 1 (IL-1) or interleukin 6 (IL-6) was measured by ELISA. The concentration of compound at which LPS- or interferon-γ-induced cytokine release was suppressed by 50% compared to vehicle-only-treated cells (EC50) was calculated using Prism® software. Table 9 lists the EC50 for two compounds tested in this assay.

[5] = test system: murine antigen induced arthritis; test: murine antigen-induced arthritis, histological score; type: in vivo, mice
Method: Antigen-induced arthritis was induced in mice. C57BL6/J male mice, aged 7-10 weeks old, were immunized on day 0 with 200 μg methylated BSA (mBSA) emulsified in 200 μl of Freund's complete adjuvant (FCA) injected subcutaneously into the flank skin. Mice were treated with compound 5, administered by intraperitoneal injection, once per 24 hours at a dose of 15 mg/kg body weight. After seven days, mice received 100 μg mBSA and 100 μl FCA by intradermal injection at the base of the tail. After a further 14 days, arthritis was induced by intra-articular injection of 30 μg mBSA in 10 μl of sterile saline into the left knee, the right knee being injected with sterile saline alone.
Arthritis was analysed histologically at day 28 after first immunisation. Knee joints were dissected and fixed in 10% buffered formalin for 7 days. Fixed tissues were decalcified for 3 weeks in 15% ethylene-diamine-tetra-acetic acid (EDTA), dehydrated and embedded in paraffin. Sagittal sections (5 μm) of the knee joint were stained with Safranin-O and counterstained with fast green/iron hematoxylin. Histological sections were scored from 0 to 3 for four parameters: Synovitis was defined as hyper-cellularity of the synovium including pannus formation. Joint space exudate was identified as leukocytes, discretely or in aggregates, in the joint space. Cartilage degradation was defined as the loss of Safranin-O staining of articular cartilage (0=full stained cartilage, 3=totally unstained cartilage). Bone damage was defined as the extent and depth of the subchondral bone invasion by pannus. A total score was also generated from the sum of these four parameters (maximum 12).

[6] = test system: IL-1 induced phosphorylation of ERK; test: IL-1 induced phosphorylation (activation) of ERK, Western blotting; type: cell-based, human; details: dexamethasone 10^-9 M alone; human dermal fibroblasts, IL-1 0.1 ng/ml, 30 minutes
Method: S112 human dermal fibroblasts cultured in RPMI (serum-free) medium were stimulated with recombinant human IL-1 0.1 ng/ml, as described herein, for 30 minutes, with or without the addition of dexamethasone 10^−9M or benzimidazol-2-one-5-pentanoate (compound 5) (50 μM). The phosphorylation (activation) of ERK was assessed using Western blotting with a mAb specific for the phosphorylated (activated) form of ERK. In brief, cells were disrupted by repeated aspiration through a 21-gauge needle. After incubation on ice for 10 min and microcentrifugation at 3000 rpm for 15 min (4° C.), the supernatants were removed, the protein concentration was determined, and the lysates were stored at −80° C. Equal amounts of cellular proteins were fractionated on 10% SDS-polyacrylamide electrophoresis gels and transferred to polyvinylidene difluoride membranes. Immunoblotting was performed using antibodies directed against phospho-p44/42 (ERK) and total p44142 according to the manufacturer's instructions. The intensity of ERK activation is proportional to the size and optical density (darkness) of the resulting blots. Total ERK blots serve as a loading control, such that changes in phosphorylated ERK represent changes in phosphorylation and not in total ERK protein.

Row | SMILES | ex vivo splenic T cell proliferation in response to mBSA ([1]; FIG. 11b, table 7, vs vehicle) | % inhibition of ex vivo splenic T cell activation ([1]; [mBSA] 10 μg/mL) | inhibition at 1 µM ([2]; Homo sapiens, Fibroblast, compound 1 μM, S112 cells, IL-1 0.1 ng/ml, 6 hours) | inhibition at 10 µM ([2]; Homo sapiens, Fibroblast, compound 10 μM, S112 cells, IL-1 0.1 ng/ml, 6 hours) | inhibition at 50 µM ([2]; Homo sapiens, Fibroblast, compound 50 μM, S112 cells, IL-1 0.1 ng/ml, 6 hours, read-out: % inhibition of IL-1-induced COX-2 expression) | inhibition at 100 µM ([2]; Homo sapiens, Fibroblast, compound 100 μM, S112 cells, IL-1 0.1 ng/ml, 6 hours) | EC50 ([3]; mBSA 10 μg/ml) | EC50 ([3]; mBSA 50 μg/ml) | EC50 ([4]; Interferon-γ 10 units/ml, read-out: EC50, IL-6 release) | EC50 ([4]; [LPS] 100 ng/mL, read-out: EC50, IL-1 release) | Total arthritis score (mean ± SEM) ([5]; maximum 12, vehicle 6.25 ± 0.2) | severity of murine antigen induced arthritis ([5]; mouse, in vivo) | % Inhibition of IL-1 induced COX-2 expression ([2]; Table 2 experiment, dexamethasone 10^-9 M alone) | ERK activation by IL-1 [6]
1 | O=C(NCCc1ccc(O)c(O)c1)c1ccc2[nH]c(=O)[nH]c2c1 [Compound 13, N-(3,4-dihydroxyphenethyl)-2-oxo-2,3-dihydro-1H-1,3-benzimidazole-5-carboxamide] | reduced proliferative responses | 28% | 9.6% | 14.1% | 32.2% | 29.9% | 53.3 µM | 71.7 µM | 9.82 µM | 16.7 µM | 5.17 ± 1.9 | inhibitory effect |  | 
2 | C[C@@H]1C[C@H]2[C@@H]3CCC4=CC(=O)C=C[C@]4(C)[C@@]3(F)[C@@H](O)C[C@]2(C)[C@@]1(O)C(=O)CO [Dexamethasone, dexamethasone] |  |  |  |  |  |  |  |  |  |  |  |  | 46.8% | does not inhibit; also recorded: not inhibited
